We go through four molecules from patent US20250296922A1, “POLYSUBSTITUTED PYRROLIDINE DERIVATIVE, PREPARATION METHOD THEREFOR AND USE THEREOF” (SHANGHAI WENNAI THERAPEUTICS CO LTD, priority 2023, published 2025).

Where only a bound is given, the exact number is not on record here.

One series deals with Nav1.8 sodium channel (Homo sapiens (Human), UniProt Q9Y5Y9). In words: NaV1.8 blocking activity, manual patch clamp. Format: cell-based. The settings on record: CHO cell line stably expressing Nav1.8. The method, then:
The NaV1.8 blocking activity was determined by using a manual patch clamp technique to detect the effect of the subject on the channel currents of stably overexpressed Nav1.8.
CHO cell line stably expressing the Nav1.8 sodium channel was used for the experiments, gene information: sodium channel, voltage-gated, type 8, alpha (SCN10A), cDNA strictly similar to GenBank accession number: NM 006514.
Cells were cultured in HAM'S/F-12 medium containing 10% foetal bovine serum and 10 μg/mL Blasticidin, 200 μg/mL Hygromycin B, and 100 μg/mL Zeocin at 37° C., 5% CO2. For expansion or maintenance cultures, cells were treated with 0.25%-Trypsin-EDTA, washed and centrifuged, and then inoculated in 6-cm cell culture dishes with 2.5×10^5lls per cell culture dish (final volume: 5 mL).
Prior to the patch clamp detection, cells were separated with 0.25%-Trypsin-EDTA and 6.5×10^3 cells were spread onto coverslips and incubated (final volume: 500 μL) in 24-well plates for 18 hours, then the test was performed.
50 mM CsCl, 10 mM NaCl, 10 mM HEPES, 60 mM CsF, 20 mM EGTA, and pH was adjusted to 7.2 with CsOH. • Instrument information is provided in Table 2 below:
Prior to Nav1.8 channel current testing, a blank control solution (DMSO) was diluted into 10 ml of extracellular fluid as the working solution. Positive controls and subjects were first diluted with different doses of DMSO depending on the final concentration before being diluted as working solution using extracellular fluid. 100 nM TTX was added to each working solution to block the TTX-S current. The working solution was sonicated for 20 min before performing the patch clamp test detection.
Patch clamp manipulation: firstly, the capillary glass tube was drawn into a recording electrode using a microelectrode puller, then the electrode filled with intracellular fluid was loaded into the microelectrode holder, and the microelectrode manipulator was manoeuvred under an inverted microscope to immerse the electrode into the extracellular fluid and record the electrode resistance (Rpip). The electrode was then slowly contacted to the cell surface and negative pressure suction was given to form a GQ2 seal. At this time, fast capacitance compensation was performed and negative pressure was continually applied to suction through the cell membrane to form a whole-cell recording pattern. Finally, slow capacitance compensation was performed and experimental parameters such as series resistance (Rs) were recorded. No leakage compensation was given.
Drug administration was initiated when the Nav1.8 current was stabilized for whole-cell recordings, and the next concentration was detected after each drug concentration had acted for approximately 5 min (or until the current was stable). Cell-lined coverslips were placed in the recording bath under an inverted microscope, and the blank control external solution as well as the working solution of the compound to be tested flowed sequentially from low to high concentrations through the recording bath by using gravitational perfusion and thus acted on the cells, and a peristaltic pump was used to exchange fluids during the recording. The current detected by each cell in the compound-free external fluid served as its own control. Each concentration was repeated independently 2-3 times. All electrophysiological experiments were performed at room temperature.
The voltage stimulation scheme for whole-cell patch-clamp recording of Nav1.8 currents was as follows: when a whole-cell seal was formed, the voltage was clamped at −120 mV. The resting state recording of sodium currents was performed by maintaining the voltage for 5s and then depolarizing it to 0 mV, and then administering a depolarizing pulse (TP1) to 0 m V for 50 ms for detecting the resting state sodium currents. For half-inactivated state recording, the voltage was first stepped at different voltages and maintained for 5s and then a depolarizing pulse was given to 0 mV to detect the Vhalf. […]
For orientation: The patch-clamp technique gives a direct electrical read-out from membranes.

Series [1] can be described thus: Stability of the compound in liver microsomes (mouse). The settings on record: 1 μM compound, 0.5 mg protein/mL; for Mouse liver microsomes T½ / half-life at 1 μM: 37° C.; for half-life at 1 μM: CD-1, mouse, liver microsomes, read-out: Mouse liver microsomes T½. Format: in vitro ADME, CD-1 mouse. The procedure: 2.1.1. working solution: 5 μL of test or control compound stock solution (10 mM DMSO solution) was diluted with 495 μL of acetonitrile (ACN) to obtain an intermediate stock solution (100 μM, 99% ACN).
2.2.2 Preparation procedure: An appropriate amount of NADPH powder was weighed and diluted with 10 mM MgCl2 buffer (working solution concentration: 10 mM; final reaction system concentration: 1 mM).
2.3.2 Preparation procedure: The appropriate concentration of liver microsomal working solution was prepared in 100 mM potassium phosphate buffer;
Acetonitrile (ACN) solution at 4° C. containing 200 ng/mL of Tolbutamide and 200 ng/ml of labetalol as internal standards 2.5. Operation steps:
2.5.2. Diluting liver microsomes with 100 mM potassium phosphate buffer to a concentration of 0.56 mg/mL.
2.5.3. Transferring 445 μL of liver microsomal working solution (0.56 mg/mL) to pre-heated incubation plates T60 and NCF60, and then pre-heating the incubation plates T60 and NCF60 for 10 minutes at 37° C. with shaking. Transferring 54 μL of liver microsomes to each well of the blank plate, adding 6 μL of NAPDH coenzyme solution to the blank plate, and finally transferring 180 μL of termination solution to the blank plate.
2.5.4 Adding 5 μL of compound working solution (100 μM) to the incubation plates T60 and NCF60 containing liver microsomes and mixing three times.
2.5.5. Adding 50 μL of buffer to the NCF60 plate and mixing three times, starting the timer and incubating at 37° C. for 60 min with the plate shaking.
2.5.6. Adding 180 μL of quenching solution and 6 μL of NAPDH coenzyme working solution sequentially to quenching plate TO, making sure that the plate was cold to prevent volatilization of the incubation solution.
2.5.7. For plate T60, mixing well three times and immediately transferring 54 μL of mixing solution (0-min time point) to quenching plate TO, then adding 44 μL of NAPDH coenzyme working solution to incubation plate T60. Starting the timer:
2.5.8. At the 5, 15, 30, 45 and 60 minute time points, adding 180 μL of quenching solution to the quenching plate and transferring 60 μL of reaction solution from the T60 plate to the quenching plate at each time point.
2.5.9. For NCF60 plates, mixing well and transferring 60 μL of reaction solution from the NCF60 incubating solution to a quenching plate containing 180 μL of quenching solution at 60th minute.
2.5.10. All plates were mixed on a shaker for 10 min and then centrifuged at 4000 rpm at 4° C. for 20 min.
2.5.11. Transferring 80 μL of supernatant to 240 μL of HPLC water and mixing on a
2.6.1. Calculating t1/2 and Clint (mic) values based on first-order elimination kinetics: […]
Background: Liver microsomes are vesicles of endoplasmic reticulum, rich in cytochrome P450 enzymes.

Nav1.8 sodium channel, sequence (Q9Y5Y9 whole entry): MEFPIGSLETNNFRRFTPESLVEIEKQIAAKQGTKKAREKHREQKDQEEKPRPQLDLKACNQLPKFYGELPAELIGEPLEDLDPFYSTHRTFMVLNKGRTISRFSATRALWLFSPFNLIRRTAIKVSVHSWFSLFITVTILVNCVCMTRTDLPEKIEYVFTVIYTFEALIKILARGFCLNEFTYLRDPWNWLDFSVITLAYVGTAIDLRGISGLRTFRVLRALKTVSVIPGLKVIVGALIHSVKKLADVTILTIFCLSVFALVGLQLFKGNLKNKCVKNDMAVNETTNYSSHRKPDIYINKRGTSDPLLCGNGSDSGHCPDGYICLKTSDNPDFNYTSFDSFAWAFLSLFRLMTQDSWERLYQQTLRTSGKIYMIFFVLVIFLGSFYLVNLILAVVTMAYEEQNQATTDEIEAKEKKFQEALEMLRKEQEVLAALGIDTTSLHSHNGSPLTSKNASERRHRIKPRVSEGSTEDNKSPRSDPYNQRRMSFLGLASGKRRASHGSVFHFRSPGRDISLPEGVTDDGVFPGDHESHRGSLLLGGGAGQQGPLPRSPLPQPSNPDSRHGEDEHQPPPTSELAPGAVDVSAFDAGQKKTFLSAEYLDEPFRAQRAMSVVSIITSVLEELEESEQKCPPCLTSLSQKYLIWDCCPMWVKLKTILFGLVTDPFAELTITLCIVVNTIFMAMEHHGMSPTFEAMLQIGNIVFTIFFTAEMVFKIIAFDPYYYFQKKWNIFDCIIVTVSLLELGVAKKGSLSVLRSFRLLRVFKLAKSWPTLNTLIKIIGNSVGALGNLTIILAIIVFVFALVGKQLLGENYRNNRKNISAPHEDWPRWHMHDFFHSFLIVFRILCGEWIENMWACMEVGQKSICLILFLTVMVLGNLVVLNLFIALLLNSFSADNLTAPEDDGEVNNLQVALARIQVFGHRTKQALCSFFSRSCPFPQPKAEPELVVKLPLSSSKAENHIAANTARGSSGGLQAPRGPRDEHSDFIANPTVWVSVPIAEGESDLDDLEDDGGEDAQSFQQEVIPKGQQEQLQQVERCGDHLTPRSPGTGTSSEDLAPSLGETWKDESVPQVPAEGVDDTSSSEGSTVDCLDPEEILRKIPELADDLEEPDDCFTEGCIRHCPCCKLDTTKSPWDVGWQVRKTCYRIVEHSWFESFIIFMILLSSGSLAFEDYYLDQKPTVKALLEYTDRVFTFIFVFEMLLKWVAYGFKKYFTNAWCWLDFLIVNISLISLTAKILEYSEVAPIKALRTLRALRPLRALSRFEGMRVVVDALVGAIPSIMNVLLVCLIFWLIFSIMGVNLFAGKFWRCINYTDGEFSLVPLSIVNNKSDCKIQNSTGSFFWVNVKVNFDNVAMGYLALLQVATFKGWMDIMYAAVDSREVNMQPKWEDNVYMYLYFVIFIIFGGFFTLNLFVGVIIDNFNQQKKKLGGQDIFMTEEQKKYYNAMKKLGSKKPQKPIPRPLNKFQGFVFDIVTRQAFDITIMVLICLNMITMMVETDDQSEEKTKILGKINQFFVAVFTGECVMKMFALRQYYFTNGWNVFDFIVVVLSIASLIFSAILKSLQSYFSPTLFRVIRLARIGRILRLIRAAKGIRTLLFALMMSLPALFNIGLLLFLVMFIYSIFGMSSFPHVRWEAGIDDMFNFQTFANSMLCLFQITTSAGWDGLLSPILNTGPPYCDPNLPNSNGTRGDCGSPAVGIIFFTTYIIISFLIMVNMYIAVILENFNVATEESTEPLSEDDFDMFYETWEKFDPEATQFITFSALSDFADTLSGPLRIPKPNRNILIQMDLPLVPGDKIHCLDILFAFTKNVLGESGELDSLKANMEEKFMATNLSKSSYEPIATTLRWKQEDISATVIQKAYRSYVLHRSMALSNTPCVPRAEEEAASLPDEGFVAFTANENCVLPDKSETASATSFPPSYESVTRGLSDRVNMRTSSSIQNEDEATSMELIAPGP

For orientation: IC50 means the concentration that gives 50% inhibition. Read a low IC50 as greater potency. Turning to “4-((2R,3S,4S,5R)-3-(3,4-difluoro-2-(methoxy-d3)phenyl)-4,5-dimethyl-5-(trifluoromethyl) pyrrolidine-2-carboxamido)pyridinamide [Compound 11]”, on Nav1.8 sodium channel, the “Blocking rate (%) @3 nM” value was 90.26%, the “Blocking rate(%) @10 nM” value amounted to 97.84% and the IC50 worked out at 0.73 nM. In series [1], the “Mouse liver microsomes T½” value stood at 1.24 h and the “Mouse liver microsomes Residual (T = 60 min)” value is on record as 52.9%.
As to `COc1c([C@H]2[C@H](C(=O)Nc3ccc[n+]([O-])c3)N[C@@](C)(C(F)(F)F)[C@H]2C)ccc(F)c1F` [Compound 7, 3-((2R,3S,4S,5R)-3-(3,4-difluoro-2-methoxyphenyl)-4,5-dimethyl-5-(trifluoromethyl)pyrrolidine-2-carboxamido)pyridine 1-oxide], at Nav1.8 sodium channel, the “Blocking rate (%) @3 nM” value was found to be 67.34% and the “Blocking rate(%) @10 nM” value was determined as 91.89%. In series [1], the half-life at 1 μM was over 2.42 h and the “Mouse liver microsomes Residual (T = 60 min)” value is listed as 75.4%.
Regarding `COc1c([C@H]2[C@H](C(=O)Nc3cccc(S(N)(=O)=O)c3)N[C@@](C)(C(F)(F)F)[C@H]2C)ccc(F)c1F` [Compound 8, (2R,3S,4S,5R)-3-(3,4-difluoro-2-methoxyphenyl)-4,5-dimethyl-aza-(3-aminosulfonylphenyl)-5-(trifluoromethyl) pyrrolidine-2-carboxamide], on Nav1.8 sodium channel, the “Blocking rate (%) @3 nM” value is listed as 93.13% and the “Blocking rate(%) @10 nM” value worked out at 100.00%. Also, in series [1], the “Mouse liver microsomes T½” value worked out at 1.51 h and the “Mouse liver microsomes Residual (T = 60 min)” value stood at 62.9%.
`COc1c([C@H]2[C@H](C(=O)Nc3ccnc(C(N)=O)c3)O[C@@](C)(C(F)(F)F)[C@H]2C)ccc(F)c1F` [VX-548, reference compound]: in series [1], the half-life at 1 μM turned out to be 1.2 h and the “Mouse liver microsomes Residual (T = 60 min)” value was determined as 56.3%.
